Assay results reported in US4521339A, “Ansatrienols” (Nisshin Flour Milling Co., Ltd., priority 1981, dated 1985).
Converted amounts (≈) assume the structure as drawn. “Also recorded” adds a separate entry of the source.

Legend:
Solubility in solvents = details: for Solubility in solvents: organic solvents; for Soluble in (continued line of the solubility entry): organic solvents in which the substance is soluble, continuation line
Acute toxicity = details: mouse, in vivo, ip
L-5178Y lymphoma cells = assay: Anti-tumor activity (in vitro) against L-5178Y lymphoma cells; assay type: cell-based; details: statement in words
Method: The cell growth was observed by a dilution method using an Eagle-NEM medium (Nissui) supplemented with 10% horse serum and 100 mg/l asparagine and cultivated at 37° C. for 120 hours. The T-23-I substance in ethanol solution was added to an assay system.
The cell growth was observed by a dilution method using an Eagle-NEM medium (Nissui) supplemented with 10% horse serum and 100 mg/l asparagine and cultivated at 37° C. for 120 hours. The T-23-II substance in ethanol solution was added to an assay system.

[1] = system: Mucor pusillus (IAM 6122); assay: Antimicrobial activity (MIC, dilution method); assay type: cell-based; details: Rhizomucor pusillus, IAM6122, 30° C., 72 hours, read-out: MIC (minimum inhibitory concentration)
Method: (§1) The MIC (minimum inhibitory concentration) value of the T-23-I substance was determined by cultivation of a microorganism in a medium containing 1.0% glucose and 0.2% malt extract at 30° C. for 72 hours by a dilution method.
(§2) The MIC (minimum inhibitory concentration) value of the T-23-II substance was determined by cultivation of a microorganism in a medium containing 1.0% glucose and 0.2% malt extract at 30° C. for 72 hours by a dilution method.

[2] = system: Aspergillus japonicus (IAM 2016); assay: Antimicrobial activity (MIC, dilution method); assay type: cell-based; details: IAM2016, 30° C., 72 hours, read-out: MIC (minimum inhibitory concentration)
Method: as §1, §2

[3] = system: Candida utilis (IFO 0396); assay: Antimicrobial activity (MIC, dilution method); assay type: cell-based; details: Williopsis jadinii, IFO0396, 30° C., 72 hours, read-out: MIC (minimum inhibitory concentration)
Method: as §1, §2

[4] = system: Penicillium chrysogenum (IAM 7106); assay: Antimicrobial activity (MIC, dilution method); assay type: cell-based; details: IAM7106, 30° C., 72 hours, read-out: MIC (minimum inhibitory concentration)
Method: as §1, §2

[5] = system: Saccharomyces rouxii (IFO 0505); assay: Antimicrobial activity (MIC, dilution method); assay type: cell-based; details: Zygosaccharomyces rouxii, IFO0505, 30° C., 72 hours, read-out: MIC (minimum inhibitory concentration)
Method: as §1, §2

[6] = system: Saccharomyces cerevisiae (IFO 0304); assay: Antimicrobial activity (MIC, dilution method); assay type: cell-based; details: IFO0304, 30° C., 72 hours, read-out: MIC (minimum inhibitory concentration)
Method: as §1, §2

mouse leukemia P-388 = assay: Anti-tumor activity against mouse leukemia P-388 (life span of mice); assay type: in vivo; details: CDF1 mice
Method: (§3) To six CDF1 male mice (20±1 g) of one group, 10^6 ascites tumor P-388 cells were transplanted intraperitoneally. The test material was administered first 24 hours and then 120 hours after transplantation. The dose of the test material suspended in gum arabic was 0.2 ml for each time. Increased life span was expressed in terms of % of the life span of the control group (administered with a gum arabic suspension).
as §3, with “after transplantation of” for “and”, “six times every 24 hours.” for “120 hours after transplantation.”

[7] = system: several types of tumor cells; assay: Growth inhibition of several types of tumor cells; assay type: cell-based; details: statement in words
mouse sarcoma 180 = assay: Anti-tumor activity against mouse sarcoma 180 (life span of mice); assay type: in vivo; details: ICR mice
Method: To six ICR male mice (25±1 g) of one group, 10^6 sarcoma 180 ascites tumor cells were transplanted intraperitoneally. The test material was administered first three hours after transplantation and then four times every 24 hours. The dose of the test material (T-23-II substance) suspended in gum arabic was 0.2 ml for each time. Increased life span was expressed in terms of % of the life span of the control group (administered with a gum arabic suspension).

Row | Structure (SMILES) | Solubility in solvents (Solubility in solvents) | Soluble in (continued line of the solubility entry) (Solubility in solvents) | Solubility in water (Solubility in solvents) | LD50 (Acute toxicity) [mg/kg] | inhibition of the growth of L-5178Y lymphoma cells (L-5178Y lymphoma cells) | MIC [1] [µg/mL] | MIC [2] [µg/mL] | MIC [3] [µg/mL] | MIC [4] [µg/mL] | MIC [5] [µg/mL] | MIC [6] [µg/mL] | inhibition of the growth of several types of tumor cells [7] | other results
1 | COC1C=CC=CC=CCC(OC(=O)[C@@H](C)NC(=O)C2CCCCC2)C(C)C(O)C(C)=CCCC2=CC(=O)C=C(NC(=O)C1)C2=O (stereo partly shown) [T-23-I substance] | soluble in higher alcohols, acetone, chloroform, benzene and ethylacetate; also recorded: Soluble in methanol, ethanol, acetone; also recorded: Sparingly soluble in benzene and ether; also recorded: Insoluble in water, petroleum ether and hexane | chloroform and ethyl acetate | Insoluble in water | 55.9 | effective to inhibit the growth of L-5178Y lymphoma cells | 12.5 (≈ 19.6 µM) | 12.5 (≈ 19.6 µM) | 4 (≈ 6.28 µM) | 8 (≈ 12.6 µM) | 4 (≈ 6.28 µM) | 4 (≈ 6.28 µM) | some significant effect to inhibit the growth of several types of tumor cells | Increased life span T/C (mouse leukemia P-388; 0.75 mg/kg/day × 2 times): 105.7%; Increased life span T/C (mouse leukemia P-388; 1.5 mg/kg/day × 2 times): 107.3%; Increased life span T/C (mouse leukemia P-388; 3 mg/kg/day × 2 times): 105.7%; Increased life span T/C (mouse leukemia P-388; 6 mg/kg/day × 2 times): 120.2%; Increased life span T/C (mouse leukemia P-388; 12 mg/kg/day × 2 times): 123.3%; Increased life span T/C (mouse leukemia P-388; 24 mg/kg/day × 2 times): 56.0%
2 | COC1C=CC=CC=CCC(OC(=O)[C@@H](C)NC(=O)C2CCCCC2)C(C)C(O)C(C)=CCCc2cc(O)cc(c2O)NC(=O)C1 (stereo partly shown) [T-23-II substance] | soluble in higher alcohols, acetone, chloroform, benzene and ethylacetate; also recorded: Soluble in chloroform, methanol, ethanol; also recorded: Sparingly soluble in benzene and ether; also recorded: Insoluble in water, petroleum ether and hexane | acetone and ethyl acetate | Insoluble in water | 85.5 | effective to inhibit the growth of L-5178Y lymphoma cells | 12.5 (≈ 19.6 µM) | 12.5 (≈ 19.6 µM) | 4 (≈ 6.26 µM) | 12.5 (≈ 19.6 µM) | 4 (≈ 6.26 µM) | 4 (≈ 6.26 µM) | some significant effect to inhibit the growth of several types of tumor cells | Increased life span T/C (mouse sarcoma 180; 0.7 mg/kg/day × 4 times): 109.6%; Increased life span T/C (mouse sarcoma 180; 2.2 mg/kg/day × 4 times): 95.6%; Increased life span T/C (mouse sarcoma 180; 6.6 mg/kg/day × 4 times): 115.0%; Increased life span T/C (mouse sarcoma 180; 20 mg/kg/day × 4 times): 138.7%; Increased life span T/C (mouse leukemia P-388; 1.25 mg/kg/day × 6 times): 130.0%; Increased life span T/C (mouse leukemia P-388; 2.5 mg/kg/day × 6 times): 109.9%; Increased life span T/C (mouse leukemia P-388; 5 mg/kg/day × 6 times): 127.1%; Increased life span T/C (mouse leukemia P-388; 10 mg/kg/day × 6 times): 120.2%; Increased life span T/C (mouse leukemia P-388; 20 mg/kg/day × 6 times): 135.7%
3 | COC1C=CC=CC=CCC(O)C(C)C(O)C(C)=CCCC2=CC(=O)C=C(NC(=O)C1)C2=O (stereo not shown) [T-23-III substance] | Soluble in chloroform, ethyl acetate, methanol; also recorded: Sparingly soluble in ethyl ether; also recorded: Insoluble in petroleum ether and water | toluene | Insoluble | ~250 | – | – | – | – | – | – | – | some significant effect to inhibit the growth of several types of tumor cells | –
4 | COC1C=CC=CC=CCC(O)C(C)C(O)C(C)=CCCc2cc(O)cc(c2O)NC(=O)C1 (stereo not shown) [T-23-IV substance] | Soluble in chloroform, ethyl acetate, methanol; also recorded: Sparingly soluble in benzene and toluene; also recorded: Insoluble in petroleum ether and water | ethanol, acetone and acetonitrile | Insoluble | ~280 | – | – | – | – | – | – | – | some significant effect to inhibit the growth of several types of tumor cells | –
